In one assay the test system is cytidine deaminase. As to conditions: 37° C.; for yield of deaminated product (HPLC, crude mixture): 5 hours. On the procedure:
The reaction was performed at 37° C. during […] and stopped with HCl. Then, the crude reaction was filtered through a 10 KDa membrane, and a portion was diluted and analyzed by HPLC under UV-DAD (ultraviolet-diode array detection). Product identification was performed by comparison to a standard sample.
After 5 hours, the reaction was stopped with HCl and a portion of the reaction was diluted and filtered for HPLC and MS analysis.

The target in another assay is T1, adenosine deaminase (Homo sapiens, UniProt P00813).
T1 sequence (P00813 1-363): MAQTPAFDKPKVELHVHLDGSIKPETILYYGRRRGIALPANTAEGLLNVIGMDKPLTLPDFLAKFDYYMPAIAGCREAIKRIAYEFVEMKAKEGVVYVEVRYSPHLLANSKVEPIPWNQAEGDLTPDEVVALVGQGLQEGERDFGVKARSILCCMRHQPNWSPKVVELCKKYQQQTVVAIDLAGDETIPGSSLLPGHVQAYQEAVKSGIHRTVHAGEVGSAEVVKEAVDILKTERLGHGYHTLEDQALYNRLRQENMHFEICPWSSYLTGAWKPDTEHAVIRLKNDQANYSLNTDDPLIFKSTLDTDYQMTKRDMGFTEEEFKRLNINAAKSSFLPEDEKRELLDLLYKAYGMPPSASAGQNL
As to conditions: commercially available purified enzyme, analytical conditions; cited from earlier work.

The mark [1] stands for this setting: 20 mM substrate, KH2PO4 100 mM pH 7.0, 90 AU cytidine deaminase.
The mark [2] stands for this setting: 100 mM substrate, KH2PO4 100 mM pH 7.0, 36-240 AU cytidine deaminase.

Each structure is given as a SMILES string. Structures can show the parent of a compound that is named as a salt. Where two headings read alike, the source gives them in different places.

Regarding `COC(=O)[C@H](CC(C)C)NP(=O)(OC[C@H]1O[C@@H](n2ccc(N)nc2=O)[C@H](O)[C@@H]1O)Oc1ccccc1` (stereo partly drawn) [compound 10, methyl ((((2R,3S,4R,5R)-5-(4-amino-2-oxopyrimidin-1(2H)-yl)-3,4-dihydroxytetrahydrofuran-2-yl)methoxy)(phenoxy)phosphoryl)-L-leucinate hydrochloride], the “yield of deaminated product (HPLC, crude mixture)” value (from here on “yield … (HPLC, crude mixture)”) in the assay with cytidine deaminase (setting [1]) is listed as over 70%.

As for `COC(=O)[C@@H](NP(=O)(OC[C@H]1O[C@@H](n2ccc(N)nc2=O)[C@H](O)[C@@H]1O)Oc1ccccc1)C(C)C` (stereo partly drawn) [compound 12, methyl ((((2R,3S,4R,5R)-5-(4-amino-2-oxopyrimidin-1 (2H)-yl)-3,4-dihydroxytetrahydrofuran-2-yl)methoxy)(phenoxy)phosphoryl)-L-valinate hydrochloride], in the assay on cytidine deaminase (setting [1]), the “yield … (HPLC, crude mixture)” value is over 70%.

`CC(C)OC(=O)[C@H](C)NP(=O)(OC[C@H]1O[C@@H](n2ccc(N)nc2=O)[C@H](O)[C@@H]1O)Oc1ccccc1` (stereo partly drawn) [compound 14, isopropyl ((((2R,3S,4R,5R)-5-(4-amino-2-oxopyrimidin-1(2H)-yl)-3,4-dihydroxytetrahydrofuran-2-yl)methoxy)(phenoxy)phosphoryl)-L-alaninate hydrochloride]: the “yield … (HPLC, crude mixture)” value with cytidine deaminase (setting [1]) is recorded as “quantitatively”.

For `COC(=O)[C@H](C)NP(=O)(OC[C@H]1O[C@@H](n2ccc(N)nc2=O)[C@H](O)[C@@H]1O)Oc1ccccc1.Cl` (stereo partly drawn) [compound 14-Me, methyl ((((2R,3S,4R,5R)-5-(4-amino-2-oxopyrimidin-1 (2H)-yl)-3,4-dihydroxytetrahydrofuran-2-yl)methoxy)(phenoxy)phosphoryl)-L-alaninate hydrochloride], the “yield … (HPLC, crude mixture)” value in the assay on cytidine deaminase (setting [1]) is listed as over 80%.

For the compound `COC(=O)[C@H](CC(C)C)NP(=O)(OC[C@H]1O[C@@H](n2ccc(N)nc2=O)C(F)(F)[C@@H]1O)Oc1ccccc1` (stereo partly drawn) [compound 16, methyl ((((2R,3R,5R)-5-(4-amino-2-oxopyrimidin-1(2H)-yl)-4,4-difluoro-3-hydroxytetrahydrofuran-2-yl)methoxy)(phenoxy)phosphoryl)-L-leucinate], in the assay on cytidine deaminase (setting [2]), the “yield … (HPLC, crude mixture)” value is reported as “quantitatively”.

As for `COC(=O)[C@@H](NP(=O)(OC[C@H]1O[C@@H](n2ccc(N)nc2=O)C(F)(F)[C@@H]1O)Oc1ccccc1)C(C)C` (stereo partly drawn) [compound 17, methyl ((((2R,3R,5R)-5-(4-amino-2-oxopyrimidin-1 (2H)-yl)-4,4-difluoro-3-hydroxytetrahydrofuran-2-yl)methoxy)(phenoxy)phosphoryl)-L-valinate], in the assay on cytidine deaminase (setting [2]), the “yield … (HPLC, crude mixture)” value is reported as “quantitative yield”.

Regarding `CC(C)OC(=O)[C@H](C)NP(=O)(OC[C@H]1O[C@@H](n2ccc(N)nc2=O)C(F)(F)[C@@H]1O)Oc1ccccc1` (stereo partly drawn) [compound 18, isopropyl ((((2R,3R,5R)-5-(4-amino-2-oxopyrimidin-1 (2H)-yl)-4,4-difluoro-3-hydroxytetrahydrofuran-2-yl)methoxy)(phenoxy)phosphoryl)-L-alaninate], the “yield … (HPLC, crude mixture)” value in the assay with cytidine deaminase (setting [2]) was “quantitative yield”.

Regarding `COC(=O)[C@@H](NP(=O)(OC[C@H]1O[C@@H](n2cnc(N)nc2=O)C[C@@H]1O)Oc1ccccc1)C(C)C` (stereo partly drawn) [compound 21, methyl ((((2R,3S,5R)-5-(4-amino-2-oxo-1,3,5-triazin-1(2H)-yl)-3-hydroxytetrahydrofuran-2-yl)methoxy)(phenoxy)phosphoryl)-L-valinate], the “yield of deaminated product (HPLC)” value with cytidine deaminase (pH 6, 13 mM substrate, KH2PO4 100 mM, 66 AU cytidine deaminase, 24 hours) is on record as “higher than 90%”. Moreover, the “conversion into deaminated product” value in the assay on cytidine deaminase (pH 7, 13 mM substrate, KH2PO4 100 mM, 66 AU cytidine deaminase, 24 hours) is listed as “quantitatively”; in the assay with cytidine deaminase (pH 8, 13 mM substrate, KH2PO4 100 mM, 66 AU cytidine deaminase, 24 hours), “quantitatively”.

For the compound `Nc1ncnc2c1ncn2[C@H]1C[C@H](O)[C@@H](CO)O1` [deoxyadenosine], at adenosine deaminase, the deamination yield was 59%.

Source of the values: US20180066295A1, “DEAMINATION OF ORGANOPHOSPHORUS-NUCLEOSIDES” (INSTITUT UNIV. DE CIÈNCIA I TECNOLOGIA, S. A., priority 2015, published 2018).
